Test results: PMC9085577, “Discovery of a Potent and Orally Active Dual GPBAR1/CysLT1R Modulator for the Treatment of Metabolic Fatty Liver Disease” (Frontiers in Pharmacology, 2022)

Key:
human GPBAR1 = target: T1, human GPBAR1 (Homo sapiens, UniProt Q8TDU6); assay: GPBAR1 CRE-luciferase reporter transactivation assay in HEK-293T cells; type: cell-based; details: HEK293T cells
T1 construct: expressed in transfected cells; host or cells: HEK-293T cells, transient transfection (Fugene HD)
T1 sequence (Q8TDU6 1-330): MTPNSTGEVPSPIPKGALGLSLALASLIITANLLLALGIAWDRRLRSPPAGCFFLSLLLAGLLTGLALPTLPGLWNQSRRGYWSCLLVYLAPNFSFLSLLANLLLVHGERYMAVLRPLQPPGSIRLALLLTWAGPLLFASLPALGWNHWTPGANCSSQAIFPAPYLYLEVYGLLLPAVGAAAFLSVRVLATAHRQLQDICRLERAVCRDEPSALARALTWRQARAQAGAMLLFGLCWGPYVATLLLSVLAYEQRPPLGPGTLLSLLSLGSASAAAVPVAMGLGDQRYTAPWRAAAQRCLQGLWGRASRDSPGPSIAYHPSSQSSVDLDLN
Protocol: GPBAR1. […] At 18 h post stimulations, cellular lysates were assayed for luciferase and Renilla activities using the Dual-Luciferase Reporter assay system (E1980, Promega Madison WI). Luminescence was measured using Glomax 20/20 luminometer (Promega, Madison WI). Luciferase activities were normalized with Renilla activities.
Agonistic activities of compounds on GPBAR1 were compared to TLCA, which was set as 100%.

[1] = Metabolic stability in liver S9 fraction; type: in vitro ADME
Protocol: Metabolic Stability. All compounds were tested at the final concentration of 1 µM in a 50 mM potassium phosphate buffer (pH 7.4) containing 1% DMSO as vehicle. For microsomes assay, the incubation mixtures contained 0.15 mg of Human liver microsomes (Sigma-Aldrich, St. Louis, MO, United States), 5 mM MgCl2, 1 mM NADPH, 5 mM glucose 6-phosphate, 0.4 U mL^−1 glucose 6-phosphate dehydrogenase. For S9 fraction analysis, the buffer contained 0.15 mg of S9 proteins (Sigma-Aldrich, St. Louis, MO, United States), 0.3 mM NADPH, 5.6 mM glucose-6-phosphate, 0.6 units/mL glucose-6-phosphate dehydrogenase, 5.8 mM UDP-glucuronic acid, 0.05 mM acetyl-CoA, 0.5 mM dithiothreitol, 0.5 mM 3′-phosphoadenosine 5′-phosphosulfate, 1 mM glutathione, 0.2 mM acetyl carnitine, 4 units/mL carnitine acetyl transferase, 0.5 mM glycine, and 0.5 mM taurine.
Samples were kept at 37°C and aliquots were removed at 0, 5, 15, 30, 45, 60, 90, 120, 150 min after protein additions. The reaction was stopped by adding 200 µL of ice-cold acetonitrile to withdrawn aliquots. After 2 h, samples were centrifuged for 10 min at 10,000 rpm, and supernatants were subjected to LC-MS/MS analysis. […]
In vitro intrinsic clearance (Clint expressed as µL/min/mg) was calculated according to the following formula: Clint = Vx 0.693/t1/2 were V = volume of reaction (µL)/protein in the incubation (mg). […]

[2] = tested on: eWAT and colon mRNA expression; assay: Quantitative real-time PCR of eWAT and colon of HFD-F mice; type: in vivo; details: 30 mg/kg/day by gavage
Description: C57BL/6J male mice were fed a high fat diet (HFD) containing 59 KJ% fat plus 1% cholesterol, w/o sugar (ssniff ® EF R/M acc. D12330 mod. 22,7 ME/kg) and fructose (HFD-F) in drinking water (42 g/L), or normal chow diet for 61 days. Food intake was estimated as the difference of weight between the offered and the remnant amount of food at 3-days intervals. The food was provided as pressed pellets and the residual spillage was not considered. After 7 days, HFD-F mice were randomized to receive HFD-F alone or in combination with compound 2 (30 mg/kg/day) by gavage until the end of the experiment. Doses of each agent were chosen according to previously published data. Mice were housed under controlled temperature (22°C) and photoperiods (12:12-h light/dark cycle), allowed unrestricted access to standard mouse chow and tap water. The experimental protocol was approved by the Animal Care and Use Committee of the University of Perugia and by the Italian Minister of Health and Istituto Superiore di Sanità (Italy) and was in agreement with the European guidelines for use of experimental animals (permission n. 583/2017-PR). The general health of the animals was monitored daily by the Veterinarian in the animal facility. At the day of sacrifice, fed mice were deeply anesthetized with a mixture of tiletamine hypochloride and zolazepam hypochloride/xylazine at a dose of 50/5 mg/kg and sacrificed before 12 a.m.
RNA was extracted from eWAT and colon with Direct-zol™ RNA MiniPrep w/Zymo-Spin™ IIC Columns (Zymo Research, Irvine, CA) and it was subjected to reverse transcription with FastGene Scriptase Basic Kit (Nippon Genetics Europe) in a 20 μL reaction volume.
For real time PCR, 50 ng cDNA were amplified in a 20 μL solution containing 200 nM of each primer and 10 μL of SYBR Select Master Mix (Thermo Fisher Scientific, Waltham, MA, United States). All reactions were performed in triplicate, and the thermal cycling conditions were as follows: 10 min at 95°C, followed by 40 cycles of 95°C for 10 s and 60°C for 45 s with QuantStudio™ 3 Real-Time PCR System (Applied Biosystems). The relative mRNA expression was calculated and expressed as 2−(ΔΔCt). Expression of the respective gene was normalized against Gapdh mRNA as an internal control. The following primers for Real-Time PCR were used: mouse-Gapdh: ctgagtatgtcgtggagtctac and gttggtggtgcaggatgcattg; mouse-Srebf1: gatcaaagaggagccagtgc and tagatggtggctgctgagtg; mouse-Fasn: tcaagatgaaggtggcagaggtgct and ttgagcagtgccgggattcgg; mouse-Pgc1α: cttagcactcagaaccatgcag and aatgctcttcgctttattgctc; mouse-Fxr: actggaccacgaagatcagatt and gagcgtactcctcctgagtcat; mouse-adiponectin: tgacagatcagctcgagtgg and cagtgccgtcagttcttgtg; mouse-Tnf-α: ccaccacgctcttctgtcta and agggtctgggccatagaact; mouse-ucp2: ttgcccgtaatgccattgtc and gcaagggaggtcatctgtca; mouse-cd11b gtcagagtctgcctccgtgt and cagggtctaaagccaggtca; mouse-pparγ: gccagtttcgatccgtagaa and aatccttggccctctgagat; mouse-Il-1β: gctgaaagctctccacctca and aggccacaggtattttgtcg; mouse-Gcg: ccaagattttgtgcagtggtt and ccttcagcatgcctctcaaa.

SMILES: O=C(O)c1cccc(-c2ccc(OCc3ccc4ccccc4n3)cc2)c1 [Compound 2, 4'-(quinolin-2-ylmethoxy)-[1,1′-biphenyl]-3-carboxylic acid]
- EC50 (human GPBAR1; CRE luciferase): 4.6 ± 1.5 µM
- Emax (human GPBAR1; HEK-293T, compound 10 µM relative to TLCA (10 μM) as 100, CRE transactivation, read-out: GPBAR1 Eff (%) maximum efficacy): 82 ± 1.2%
- microsomal CLint at 1 µM ([1]; pH 7.4): 6 µL/min/mg
- half-life at 1 µM ([1]; pH 7.4, read-out: S9 fraction t1/2): 6.42 h
- colon expression of Gcg [2]: upregulated
- colon expression of Il-1β [2]: strongly reduced
- eWAT expression of Cd11b [2]: robustly reduced
- eWAT expression of Tnf-α [2]: robustly reduced
- eWAT expression of Ucp2 [2]: upregulated
